The text below walks through data of ChEMBL document CHEMBL1806498, “Novel imidazo[1,2-a]pyridine based inhibitors of the IGF-1 receptor tyrosine kinase: optimization of the aniline” (Bioorg Med Chem Lett, 2011).

Data set [1] is described as follows: physchem. Particulars: buffer, pH 7.4.
Data set [2] in a line: Dissociation constant, pKa of the compound at pH 7.4 by UV spectrophotometric titration. The format is physicochemical.
Data set [3] can be described thus: physchem. Conditions: octanol/water.
The nature of data set [4]: Aqueous solubility of the compound in phosphate buffer at pH 7.4. The format is physicochemical.

In the case of `COc1cc(N2CC3CNCC(C2)O3)ccc1Nc1ncc(Cl)c(-c2cnc3ccccn23)n1`, in the data set “physchem [1]”, the log distribution coefficient (logD) – broadly, the decadic logarithm of the distribution of all forms, ionised or not, between an organic phase and buffer at a given pH – came out at 2.3. Moreover, the pKa (in general, the pH at which an ionisable group is half protonated) in data set [2] stood at 8.7. For the same compound, the logP (as a rule, a log measure of how a compound divides between an organic and an aqueous phase) in the data set “physchem [3]” was 3.6.
In turn, `COc1cc(N2CC3CN(CCO)CC(C2)O3)ccc1Nc1ncc(Cl)c(-c2cnc3ccccn23)n1` displayed a pKa in data set [2] of 8.4.
On to `COc1cc(N2CCN(S(C)(=O)=O)CC2)ccc1Nc1ncc(Cl)c(-c2cnc3ccccn23)n1`, for which the solubility (in general, the concentration that dissolves in the medium under given conditions) in data set [4] was under 0.6 µM.
In turn, `COc1cc(N2CC3COCC(C2)N3)ccc1Nc1ncc(Cl)c(-c2cnc3ccccn23)n1` had a logD in the data set “physchem [1]” of 3. In data set [2], this compound had a pKa of 6.7. In addition, the logP in “physchem [3]” was 3.1.
